In US6255092A, “Stereospecific alcohol dehydrogenase isolated from Candida parapsilosis, amino acid and DNA sequences therefor, and method of preparation thereof” (Daicel Chemical Industries Ltd., priority 1993, dated 2001):
Read-outs that look alike come from different tables or passages of the source.

How the values were obtained:
[1] = molecular target: T1, secondary alcohol dehydrogenase (Lodderomyces parapsilosis, UniProt O42703)
Text: (§1) One unit of enzyme was defined as the amount of enzyme necessary to catalyze the formation of 1 μmol of NADH per min under the assay conditions.

[2] = molecular target: T1, secondary alcohol dehydrogenase; test: biochemical; type: biochemical, Candida parapsilosis; design: full length 336 aa, about 40 kDa; gene also expressed in E. coli JM109 (pKK-CPA1); conditions: for remaining activity at 1000 µM: read-out: Relative activity (remaining activity)
Experimental: After said enzyme was incubated at 30° C. for 30 min in the presence of various reagents, the remaining activity was assayed and expressed as the percentage relative to that (100%) of the untreated enzyme (Table 5).

[3] = molecular target: T1, secondary alcohol dehydrogenase; test: Substrate specificity: reducing activity with ketones/aldehydes (NADH); type: biochemical, Candida parapsilosis; design: full length 336 aa, about 40 kDa; gene also expressed in E. coli JM109 (pKK-CPA1); conditions: reduction, coenzyme NADH, relative to 2-butanone reducing activity (100%)
[4] = Specific activity of the purified enzyme, standard assay; type: biochemical, Candida parapsilosis; conditions: purified enzyme after Mono-Q, (S)-2-butanol, pH 9.0, 30° C.
Experimental: The wet cells thus obtained were disrupted in a high pressure cell disintegrator, and centrifuged to remove cell debris. To the cell-free extract protamine sulfate was added to remove nucleic acids and microsomes. After centrifugation, the supernatant was brought to 70% saturation with ammonium sulfate, and the precipitate was collected, subjected to anion exchange chromatography on Q-Sepharose FF, eluted with a density gradient of NaCl, and the peak fraction containing said secondary alcohol dehydrogenase activity was collected. The active fraction was then subjected to hydrophobic chromatography on a column of phenyl-Sepharose equilibrated with a buffer containing 1.62 M ammonium sulfate, and the active fraction was eluted by reducing the ammonium sulfate concentration to 0 M (the enzyme activity was assayed as described hereinbefore). After the active fraction was added to a Red Sepharose affinity column, the unretained fraction was subjected to a Superdex 200 gel filtration. The recovered active fraction was subjected to anion exchange chromatography on a Mono Q column and eluted with a density gradient of NaCl. Only active fractions which gave a single band in the purity test on SDS-PAGE were collected.

[5] = Thermostability of the purified enzyme; type: physicochemical, Candida parapsilosis; conditions: 40° C. for 10 min, pH 8.0, relative to the original activity
Experimental: After the purified enzyme was incubated at pH 8.0 and 30° C.-70° C. for 10 min, the remaining activity was assayed. Even after the incubation at 40° C. for 10 min, more than 90% of the original enzyme activity was retained (FIG. 5).

[6] = Optimum reaction temperature, standard assay; type: biochemical, Candida parapsilosis
Experimental: The secondary alcohol dehydrogenase activity was assayed under the standard assay conditions at different temperature as shown in Table 2.

[7] = pH optimum of (S)-2-butanol oxidizing activity; type: biochemical, Candida parapsilosis; conditions: KPB, Tris-HCl and Briton-Robinson buffer
Text: as §1

[8] = pH optimum of 2-butanone reducing activity; type: biochemical, Candida parapsilosis; conditions: NADH, KPB, Tris-HCl and Briton-Robinson buffer
[9] = relative to that for ethanol; cited from earlier work
[10] = oxidation, substrate 5 mM, coenzyme NAD+, relative to (S)-2-butanol oxidizing activity (100%)
[11] = inhibitor 1 mM, 30° C. for 30 min, relative to untreated enzyme (100%)

CCCCCCC(C)O (racemic) [(RS)-2-Octanol]
Relative activity [1, 10]: 39.2%

O[C@H](CS)[C@H](O)CS (racemic) [Dithiothreitol]
Inhibition of the enzyme activity (in words) [2]: markedly inhibited
remaining activity at 1000 µM [2, 11]: 0%

CCC(C)=O [2-Butanone]
Relative activity ([3]; substrate 100 mM): 100.0%

CC(=O)C(C)(C)O [3-Hydroxy-3-methyl-2-butanone]
Relative activity ([3]; substrate 100 mM): 18.5%

CC(=O)CCO [4-Hydroxy-2-butanone]
Relative activity ([3]; substrate 100 mM): 41.2%

CC(C)CC(C)O (stereo not shown) [4-Methyl-2-pentanol]
Relative activity ([1]; oxidation, substrate 20 mM, coenzyme NAD+, relative to (S)-2-butanol oxidizing activity (100%)): 40.8%

C[C@@H](O)c1ccccc1 [(R)-1-Phenylethanol]
Relative activity [1]: 1.1

CCCCCC[C@@H](C)O [(R)-2-Octanol]
Relative activity [1, 10]: 0.0%

C[C@H](O)c1ccccc1 [(S)-1-Phenylethanol]
Relative activity [1]: 89.3

CCCCCC[C@H](C)O [(S)-2-Octanol]
Relative activity [1, 10]: 67.7%

CC(C)=O [Acetone]
Relative activity ([3]; substrate 100 mM): 123.4%

CC(=O)c1ccccc1 [Acetophenone]
Relative activity ([3]; substrate 20 mM): 121.8%

O=S(=O)([O-])[O-].[Cu+2] [CuSO4]
Relative activity (remaining activity) [2, 11]: 25.5%

OC1CCCCC1 [Cyclohexanol]
Relative activity [1]: 52.8

O=C(O)CN(CCN(CC(=O)O)CC(=O)O)CC(=O)O [Ethylenediaminetetraacetic acid, Ethylenediamine-tetraacetic acid]
Inhibition of the enzyme activity (in words) [2]: not
remaining activity at 1000 µM [2]: 102%

[Cl][Hg][Cl] [HgCl2, mercuric chloride]
Inhibition of the enzyme activity (in words) [2]: markedly inhibited
Relative activity (remaining activity) [2, 11]: 0.0%

CO [Methanol]
Relative activity [1]: 0.2

CCN1C(=O)C=CC1=O [N-Ethylmaleimide]
Inhibition of the enzyme activity (in words) [2]: inhibited
remaining activity at 1000 µM [2, 11]: 21.2%

NO [NH2 OH]
Relative activity (remaining activity) ([2]; inhibitor 0.01 mM, 30° C. for 30 min, relative to untreated enzyme (100%)): 92.7%

[N-]=[N+]=[N-].[Na+] [NaN3]
Relative activity (remaining activity) ([2]; inhibitor 0.02(%), 30° C. for 30 min, relative to untreated enzyme (100%)): 89.9%

O=S(=O)(F)Cc1ccccc1 [Phenylmethanesulfonyl fluoride, Phenylmethane-sulfonyl fluoride]
Relative activity (remaining activity) [2, 11]: 69.0%

CCC=O [Propionaldehyde]
Relative activity ([3]; substrate 100 mM): 76.2%

[Cl-].[Cl-].[Zn+2] [ZnCl2, zinc chloride]
Inhibition of the enzyme activity (in words) [2]: markedly inhibited
Relative activity (remaining activity) [2, 11]: 16.4%

OCCS [b-Mercaptoethanol, 2-mercaptoethanol]
Inhibition of the enzyme activity (in words) [2]: markedly inhibited
remaining activity at 1000 µM [2, 11]: 3.2%

NC(=O)CI [iodoacetamide]
Inhibition of the enzyme activity (in words) [2]: markedly inhibited

c1cnc2c(c1)ccc1cccnc12 [o-Phenanthroline]
Inhibition of the enzyme activity (in words) [2]: inhibited
remaining activity at 1000 µM [2, 11]: 19%

O=C(O)c1cc[c]([Hg][Cl])cc1 [p-Chloromercuribenzoic acid, p-Chloromercuri-benzoic acid]
Inhibition of the enzyme activity (in words) [2]: markedly inhibited
Relative activity (remaining activity) ([2]; inhibitor 0.05 mM, 30° C. for 30 min, relative to untreated enzyme (100%)): 0.0%
Inhibition of the enzyme activity (in words) ([2]; listed as p-mercuribenzoic acid): inhibited

B1: secondary alcohol dehydrogenase: NAD+-dependent stereospecific secondary alcohol dehydrogenase purified from Candida parapsilosis IFO 1396, SEQ. ID NO: 2 (protein)
chain: MSIPSSQYGFVFNKQSGLNLRNDLPVHKPKAGQLLLKVDAVGLCHSDLHVIYEGLDCGDNYVMGHEIAGTVAAVGDDVINYKVGDRVACVGPNGCGGCKYCRGAIDNVCKNAFGDWFGLGYDGGYQQYLLVTRPRNLSRIPDNVSADVAAASTDAVLTPYHAIKMAQVSPTSNILLIGAGGLGGNAIQVAKAFGAKVTVLDKKKEARDQAKKLGADAVYETLPESISPGSFSACFDFVSVQATFDVCQKYVEPKGVIMPVGLGAPNLSFNLGDLALREIRILGSFWGTTNDLDDVLKLVSEGKVKPVVRSAKLKELPEYIEKLRNNAYEGRVVFNP
Specific activity [4]: 1370 units/mg
Remaining activity after heat treatment [5]: more than 90%
Temperature range of high activity [6]: 25-55 °C
Relative activity ([6]; 30 °C): 55%
Relative activity ([6]; 37 °C): 65%
Relative activity ([6]; 45 °C): 92%
Relative activity ([6]; 50 °C): 100%
Relative activity ([6]; 55 °C): 88%
Relative activity ([6]; 60 °C): 0%
Optimum reaction temperature ([6]; standard assay conditions): 50 °C
pH optimum for the oxidation of (S)-2-butanol [7]: 8.5-9.5
pH optimum for the reduction of 2-butanone [8]: 5.5-6.5

B2: SADH-1: primary alcohol dehydrogenase derived from baker's yeast (Saccharomyces cerevisiae) (protein, UniProt P00330 2-348, looked up)
Alcohol dehydrogenase 1: SIPETQKGVIFYESHGKLEYKDIPVPKPKANELLINVKYSGVCHTDLHAWHGDWPLPVKLPLVGGHEGAGVVVGMGENVKGWKIGDYAGIKWLNGSCMACEYCELGNESNCPHADLSGYTHDGSFQQYATADAVQAAHIPQGTDLAQVAPILCAGITVYKALKSANLMAGHWVAISGAAGGLGSLAVQYAKAMGYRVLGIDGGEGKEELFRSIGGEVFIDFTKEKDIVGAVLKATDGGAHGVINVSVSEAAIEASTRYVRANGTTVLVGMPAGAKCCSDVFNQVVKSISIVGSYVGNRADTREALDFFARGLVKSPIKVVGLSTLPEIYEKMEKGQIVGRYVVDTSK
Relative activity for 2-butanol [9]: about 1%
